Results as given in patent publication US20080033053A1, “Cross-Reference To Related Applications” (priority 2004, published 2008).

What was measured:
rats = conditions: cited from earlier work
[1] = test system: Chinese Hamster Ovary cells; conditions: cited from earlier work
[2] = Ames Test; cited from earlier work
[3] = test system: human peripheral blood lymphocytes; conditions: in vitro; cited from earlier work
mouse bone marrow = conditions: in vivo mouse bone marrow micronucleus test; cited from earlier work
retinas from rats = assay: RNA expression profiling of retina, vehicle vs. (low dose & high dose) amantadine at steady state; assay type: in vivo, Sprague Dawley rats
[4] = by glomerular filtration and renal tubular secretion; cited from earlier work
[5] = humans, cited from earlier work
[6] = test system: patients with Huntington's disease; conditions: eight patients with Huntington's disease, open-label; cited from earlier work

Cl.NC12CC3CC(CC(C3)C1)C2 [amantadine, 1-amino adamantane HCl]
teratogenic dose (rats): 50 mg/kg/day | mutagenicity [1]: non-mutagenic | mutagenicity [2]: non-mutagenic | chromosomal damage [3]: no evidence of chromosomal damage | chromosomal damage (mouse bone marrow): no evidence of chromosomal damage | TRADD gene expression (retinas from rats; retinas following amantadine treatment, no fold change printed): down-regulated | up-regulation of several crystallins (retinas from rats; retinas of amantadine-treated rats): 4-21 fold | excretion [4]: primarily excreted unchanged in the urine | half-life, range [5]: 10 to 25 h | half-life ([5]; mean ± spread): 17 ± 4 h | dyskinesias [6]: significant reduction of dyskinesias
